Assays:
Format in all cases: biochemical
human cathepsin K = biological target: T1, human cathepsin K (Homo sapiens, UniProt P43235); assay: Assay of cathepsin K inhibitory activity in vitro; details: IC50 against human cathepsin K; substrate Z-Phe-Arg-AMC 10 μM; 25° C.; read-out: Cat-K
T1 sequence (P43235 115-329): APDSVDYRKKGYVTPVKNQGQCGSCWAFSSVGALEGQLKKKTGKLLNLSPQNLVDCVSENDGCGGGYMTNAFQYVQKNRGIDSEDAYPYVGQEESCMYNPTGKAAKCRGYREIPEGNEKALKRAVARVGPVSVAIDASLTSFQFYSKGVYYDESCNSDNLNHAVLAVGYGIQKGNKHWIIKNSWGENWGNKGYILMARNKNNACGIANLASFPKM
Description: Assay Method of Cathepsin K Inhibitory Activity In Vitro
Using 45000-fold diluted cathepsin K solution and 10 μM Z-Phe-Arg-AMC as substrate, the test compound and cathepsin K solution were incubated at 25° C. for 15 min in a 15 μL reaction system according to the optimized experimental condition.

human cathepsin B = human cathepsin B (Homo sapiens, UniProt P07858); assay: Assay of cathepsin B inhibitory activity in vitro; details: IC50 against human cathepsin B; substrate Z-Phe-Arg-AMC 10 μM; 25° C.; read-out: Cat-B
Description: Assay Method of Cathepsin B Inhibitory Activity In Vitro
0.01 ng/μL was the final concentration of Cathepsin B in the enzyme reaction, and Z-Phe-Arg-AMC with the final concentration of 10 μM was added into the reaction system as substrate, in the reaction system the test compound and enzyme had been incubated at 25° C. for 15 min.

human cathepsin L = human cathepsin L (Homo sapiens, UniProt P07711); assay: Assay of cathepsin L inhibitory activity in vitro; details: IC50 against human cathepsin L; substrate Z-Phe-Arg-AMC 10 μM; 25° C.; read-out: Cat-L
Description: Assay Method of Cathepsin L Inhibitory Activity In Vitro
0.01 ng/μL was the final concentration of Cathepsin L in the enzyme reaction, and Z-Phe-Arg-AMC with the final concentration of 10 μM was added into the reaction system as substrate, in the reaction system the test compound and enzyme had been incubated at 25° C. for 15 min.

human cathepsin S = human cathepsin S (Homo sapiens, UniProt P25774); assay: Assay of cathepsin S inhibitory activity in vitro; details: IC50 against human cathepsin S; substrate Z-VVR-AMC 20 μM; 25° C.; read-out: Cat-S
Description: Assay Method of Cathepsin S Inhibitory Activity In Vitro
0.25 ng/L was the final concentration of Cathepsin S in the enzyme reaction, and Z-VVR-AMC with the final concentration of 20 μM was added into the reaction system as substrate, in the reaction system the test compound and enzyme had been incubated at 25° C. for 15 min.

Sequence of human cathepsin S (P25774 115-331): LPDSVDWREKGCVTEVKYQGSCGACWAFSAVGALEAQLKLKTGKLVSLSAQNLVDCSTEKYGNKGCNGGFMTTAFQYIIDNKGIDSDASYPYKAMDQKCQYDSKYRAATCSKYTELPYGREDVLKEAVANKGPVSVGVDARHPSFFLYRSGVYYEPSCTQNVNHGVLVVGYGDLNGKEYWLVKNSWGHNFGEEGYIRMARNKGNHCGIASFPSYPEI
Sequence of human cathepsin L (P07711 114-333): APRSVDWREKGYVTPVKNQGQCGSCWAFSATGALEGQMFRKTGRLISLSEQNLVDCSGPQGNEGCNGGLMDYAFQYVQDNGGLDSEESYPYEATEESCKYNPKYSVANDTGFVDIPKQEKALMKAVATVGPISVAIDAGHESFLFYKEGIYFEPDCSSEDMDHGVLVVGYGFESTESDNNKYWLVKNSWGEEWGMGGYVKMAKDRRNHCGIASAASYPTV

Compound | IC50 (human cathepsin K) [nM] | IC50 (human cathepsin B) [nM] | IC50 (human cathepsin L) [nM] | IC50 (human cathepsin S) [nM]
CS(=O)(=O)c1ccc(-c2ccc3cc(C(=O)NC4(C(=O)NC5(C#N)CC5)CCC(F)(F)CC4)oc3c2)cc1 [Example 2, N-(1-((1-cyanocyclopropyl)carbamoyl)-4,4-difluorocyclohexyl)-6-(4-(methylsulfonyl)phenyl)benzofuran-2-carboxamide] | 1.37 | 880 | > 10000 | 4000
COc1cc(-c2ccc3cc(C(=O)NC4(C(=O)NC5(C#N)CC5)CCC(F)(F)CC4)oc3c2)ccc1S(C)(=O)=O [Example 97] | 1.37 | 355 | > 10000 | 2290
COc1cc(-c2ccc3cc(C(=O)NC4(C(=O)NC5(C#N)CC5)CCC(F)(F)CC4)oc3c2)ccc1OC(F)F [Example 94] | 2.4 | 4000 | > 10000 | 6500
N#CC1(NC(=O)C2(NC(=O)c3cc4ccc(-c5ccc(C6(O)CCOCC6)cc5)cc4o3)CCC(F)(F)CC2)CC1 [Example 22, N-(1-((1-cyanocyclopropyl)carbamoyl)-4,4-difluorocyclohexyl)-6-(4-(4-hydroxytetrahydro-2H-pyran-4-yl)phenyl)benzofuran-2-carboxamide] | 1.8 | 3100 | > 10000 | 1800
N#CC1(NC(=O)C2(NC(=O)c3cc4ccc(-c5ccc(N6CCNC6=O)cc5)cc4o3)CCC(F)(F)CC2)CC1 [Example 88] | 5.4 | 800 | > 10000 | 2900
N#CC1(NC(=O)C2(NC(=O)c3cc4ccc(-c5ccc(C6(O)CCC6)cc5)cc4o3)CCCCC2)CC1 [Example 9, N-(1-((1-cyanocyclopropyl)carbamoyl)cyclohexyl)-6-(4-(1-hydroxycyclobutyl)phenyl)benzofuran-2-carboxamide] | 2.7 | 410 | > 10000 | 3500
N#CC1(NC(=O)C2(NC(=O)c3cc4ccc(-c5ccc(C(=O)N6CCOCC6)cc5)cc4o3)CCC(F)(F)CC2)CC1 [Example 92] | 1.4 | 6400 | > 10000 | 2300
COc1cc(-c2ccc3cc(C(=O)NC4(C(=O)NC5(C#N)CC5)CCC(F)(F)CC4)oc3c2)ccc1C(=O)N1CCOCC1 [Example 40, N-(1-((1-cyanocyclopropyl)carbamoyl)-4,4-difluorocyclohexyl)-6-(3-methoxy-4-(morpholine-4-carbonyl)phenyl)benzofuran-2-carboxamide] | 0.96 | 2220 | > 10000 | > 10000
CS(=O)(=O)c1ccc(-c2ccc3cc(C(=O)NC4(C(=O)NC5(C#N)CC5)CCCCC4)oc3c2)c(F)c1 [Example 5, N-(1-((1-cyanocyclopropyl)carbamoyl)cyclohexyl)-6-(2-fluoro-4-(methylsulfonyl)phenyl)benzofuran-2-carboxamide] | 1.1 | 78 | > 10000 | 1600
N#CC1(NC(=O)C2(NC(=O)c3cc4ccc(-c5ccc(-n6cncn6)cc5)cc4o3)CCCCC2)CC1 [Example 84] | 1.3 | 860 | > 10000 | 9700
CC1(COc2ccc(-c3ccc4cc(C(=O)NC5(C(=O)NC6(C#N)CC6)CCC(F)(F)CC5)oc4c3)cc2)COC1 [Example 93] | 2.96 | 4300 | > 10000 | > 10000
N#CC1(NC(=O)C2(NC(=O)c3cc4ccc(-c5ccc(C6(N)COC6)cc5)cc4o3)CCC(F)(F)CC2)CC1 [Example 14, 6-(4-(3-aminooxetan-3-yl)phenyl)-N-(1-((1-cyanocyclopropyl)carbamoyl)-4,4-difluorocyclohexyl)benzofuran-2-carboxamide] | 0.38 | 86 | 3100 | 260
N#CC1(NC(=O)C2(NC(=O)c3cc4ccc(-c5ccc(C6(F)COC6)cc5)cc4o3)CCCCC2)CC1 [Example 73] | 3.04 | 1120 | > 10000 | > 10000
N#CC1(NC(=O)C2(NC(=O)c3cc4ccc(-c5ccc(C6(F)CCS(=O)(=O)CC6)cc5)cc4o3)CCCCC2)CC1 [Example 83] | 2.2 | 1600 | > 10000 | > 10000
N#CC1(NC(=O)C2(NC(=O)c3cc4ccc(-c5ccc(N6CCOCC6=O)cc5)cc4o3)CCC(F)(F)CC2)CC1 [Example 28, N-(1-((1-cyanocyclopropyl)carbamoyl)-4,4-difluorocyclohexyl)-6-(4-(3-oxomorpholino)phenyl)benzofuran-2-carboxamide] | 1.2 | 2200 | > 10000 | 1900

From patent US10494364B2, “Cathepsin K inhibitors and application thereof” (SUNSHINE LAKE PHARMA CO., LTD., priority 2015, dated 2019)
